# From paper PMC5624297, “Trichoplax adhaerens reveals a network of nuclear receptors sensitive to 9-cis-retinoic acid at the base of metazoan evolution” (PeerJ, 2017)
# Biological target: T1, TaRXR (T. adhaerens RXR; GST-TaRXR) (Trichoplax adhaerens, UniProt A0A290WNL1)
# T1 construct: full-length RXR cDNA in pGEX-2T, E. coli BL21 pLysS; N-terminal GST fusion on glutathione beads or thrombin-cleaved; starts MEDRSFK (from printed primer)
# T1 sequence (A0A290WNL1 1-345): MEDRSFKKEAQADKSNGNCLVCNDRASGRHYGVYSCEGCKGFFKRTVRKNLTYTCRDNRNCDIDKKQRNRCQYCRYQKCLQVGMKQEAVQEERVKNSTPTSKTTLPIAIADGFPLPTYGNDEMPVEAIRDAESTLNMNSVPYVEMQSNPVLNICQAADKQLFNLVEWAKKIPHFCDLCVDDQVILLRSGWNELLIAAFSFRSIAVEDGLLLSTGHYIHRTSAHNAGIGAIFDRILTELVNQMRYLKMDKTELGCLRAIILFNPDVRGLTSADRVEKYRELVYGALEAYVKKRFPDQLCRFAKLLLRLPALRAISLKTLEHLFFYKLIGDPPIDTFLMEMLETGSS
# Assay: radioligand saturation binding (GST-TaRXR on beads) and competition (thrombin-cleaved TaRXR)
# Details: labelled compound (3H); 50 mM Tris-HCl pH 7.4, 1 mM EDTA, 120 mM KCl, 5 mM DTT, 8% glycerol, 0.3-0.5% CHAPS; 2 h on ice in dark
smiles,measurement,value
CC1=C(/C=C/C(C)=C\C=C\C(C)=C\C(=O)O)C(C)(C)CCC1 [9-cis-retinoic acid],radioligand saturation binding (GST-TaRXR on beads) and competition (thrombin-cl),TaRXR prepared as thrombin cleaved TaRXR or GST-TaRXR binds 9-cis-RA with high affinity and specificity
